Laboratory results from patent publication US20070185162A1, “Substituted diketopiperazines as oxytocin receptor antagonists” (Koninklijke Philips Electronics, N.V., priority 2004, published 2007).

These compounds were tested against T1, human Oxytocin-1 (hOT) receptor (Homo sapiens, UniProt P30559) (assay: Determination of antagonist affinity at human Oxytocin-1 receptors using FLIPR (Assay 1)). Conditions: CHO-hOT cells, [Ca2+]i response to oxytocin (EC80); mean, n>=3; read-out: hOT FLIPR fpKi mean.
T1 construct: expressed in transfected cells
T1 sequence (P30559 1-389): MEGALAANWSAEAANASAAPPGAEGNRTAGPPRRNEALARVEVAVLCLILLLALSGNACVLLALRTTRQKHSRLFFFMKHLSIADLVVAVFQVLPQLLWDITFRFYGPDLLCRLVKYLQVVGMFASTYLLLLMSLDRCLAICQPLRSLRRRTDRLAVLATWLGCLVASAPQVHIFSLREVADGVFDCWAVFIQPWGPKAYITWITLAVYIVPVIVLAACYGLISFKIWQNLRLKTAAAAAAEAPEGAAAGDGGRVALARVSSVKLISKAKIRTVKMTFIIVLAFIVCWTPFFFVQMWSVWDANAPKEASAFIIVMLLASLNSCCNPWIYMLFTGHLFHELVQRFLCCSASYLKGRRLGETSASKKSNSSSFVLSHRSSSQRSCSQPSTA
Type: cell-based
Experimental: Determination of Antagonist Affinity at Human Oxytocin-1 Receptors Using FLIPR
Adherent Chinese Hamster Ovary (CHO) cells, stably expressing the recombinant human Oxytocin-1 (hOT) receptor, were maintained in culture in DMEM:F12 medium (Sigma, cat no D6421), supplemented with 10% heat inactivated foetal calf serum (Gibco/Invitrogen, cat. no. 01000-147), 2 mM L-glutamine (Gibco/Invitrogen, cat. no. 25030-024) and 0.2 mg/ml G418 (Gibco/Invitrogen, cat no. 10131-027). Cells were grown as monolayers under 95%:5% air:CO2 at 37° C. and passaged every 3-4 days using TrypLE™ Express (Gibco/Invitrogen, cat no. 12604-013).
Measurement of [Ca^2+]i Using the FLIPR™
CHO-hOT cells were seeded into black walled clear-base 384-well plates (Nunc) at a density of 10,000 cells per well in culture medium as described above and maintained overnight (95%:5% air:CO2 at 37° C.). After removal of culture medium, cells were incubated for 1 h at 37° C. in Tyrode's medium (NaCl, 145 mM; KCl, 2.5 mM; HEPES, 10 mM; Glucose, 10 mM; MgCl2, 1.2 mM; CaCl2, 1.5 mM) containing probenacid (0.7 mg/ml), the cytoplasmic calcium indicator, Fluo-4 (4 uM; Teflabs, USA) and the quenching agent Brilliant Black (250 uM; Molecular Devices, UK). Cells were then incubated for an additional 30 min at 37° C. with either buffer alone or buffer containing OT antagonist, before being placed into a FLIPR™ (Molecular Devices, UK) to monitor cell fluorescence (λex=488 nm, λEM=540 nm) before and after the addition of a submaximal concentration of oxytocin (EC80).
Functional responses using FLIPR were analysed using Activity Base Version 5.0.10. Data are reported as mean values, wherein number of times tested (n) is greater than or equal to 3.

Ki [nM]	Compound
0.501 to 1.58	CCC(CC)[C@@H]1C(=O)N[C@H](C2Cc3ccccc3C2)C(=O)N1[C@@H](C(=O)N1CCOCC1)c1coc(C)n1 [Example 9, (3R,6R)-3-(2,3-Dihydro-1H-inden-2-yl)-6-(1-ethylpropyl)-1-[(1R)-1-(2-methyl-1,3-oxazol-4-yl)-2-(4-morpholinyl)-2-oxoethyl]-2,5-piperazinedione]
0.501 to 1.58	CCC(CC)[C@@H]1C(=O)N[C@H](C2Cc3ccccc3C2)C(=O)N1[C@@H](C(=O)N(C)C)c1ccc(C)nc1 [Example 2, (2R)-2-[(3R,6R)-3-(2,3-Dihydro-1H-inden-2-yl)-6-(1-ethylpropyl)-2,5-dioxo-1-piperazinyl]-N,N-dimethyl-2-(6-methyl-3-pyridinyl)ethanamide]
0.501 to 1.58	CCC(CC)[C@@H]1C(=O)N[C@H](C2Cc3ccccc3C2)C(=O)N1[C@@H](C(=O)NC)c1ccc(C)nc1C [Example 3, (2R)-2-[(3R,6R)-3-(2,3-Dihydro-1H-inden-2-yl)-6-(1-ethylpropyl)-2,5-dioxo-1-piperazinyl]-2-(2,6-dimethyl-3-pyridinyl)-N-methylethanamide]
0.501 to 1.58	CCC(CC)[C@@H]1C(=O)N[C@H](C2Cc3ccccc3C2)C(=O)N1[C@@H](C(=O)N(C)C)c1ccc(C)nc1C [Example 4, (2R)-2-[(3R,6R)-3-(2,3-Dihydro-1H-inden-2-yl)-6-(1-ethylpropyl)-2,5-dioxo-1-piperazinyl]-2-(2,6-dimethyl-3-pyridinyl)-N,N-dimethylethanamide]
≤ 0.398	CCC(CC)[C@@H]1C(=O)N[C@H](C2Cc3ccccc3C2)C(=O)N1[C@@H](C(=O)N1CCOCC1)c1ccc(C)nc1C [Example 5, (3R,6R)-3-(2,3-Dihydro-1H-inden-2-yl)-1-[(1R)-1-(2,6-dimethyl-3-pyridinyl)-2-(4-morpholinyl)-2-oxoethyl]-6-(1-ethylpropyl)-2,5-piperazinedione]
≤ 0.398	CCC(CC)[C@@H]1C(=O)N[C@H](C2Cc3ccccc3C2)C(=O)N1[C@@H](C(=O)N(C)C)c1ccc2c(cnn2C)c1 [Example 7, (2R)-2-[(3R,6R)-3-(2,3-Dihydro-1H-inden-2-yl)-6-(1-ethylpropyl)-2,5-dioxo-1-piperazinyl]-N,N-dimethyl-2-(1-methyl-1H-indazol-5-yl)ethanamide]
≤ 0.398	CCC(CC)[C@@H]1C(=O)N[C@H](C2Cc3ccccc3C2)C(=O)N1[C@@H](C(=O)N1CCOCC1)c1ccc2c(cnn2C)c1 [Example 8, (3R,6R)-3-(2,3-Dihydro-1H-inden-2-yl)-6-(1-ethylpropyl)-1-[(1R)-1-(1-methyl-1H-indazol-5-yl)-2-(4-morpholinyl)-2-oxoethyl]-2,5-piperazinedione]
31.6 to 100	Cc1nc([C@H](C(=O)N2CCOCC2)N2C(=O)[C@@H](C3Cc4ccccc4C3)NC(=O)[C@H]2CC(C)C)co1 [Comparator Y, (3R,6R)-3-(2,3-dihydro-1H-inden-2-yl)-1-[(1R)-1-(2-methyl-1,3-oxazol-4-yl)-2-(4-morpholinyl)-2-oxoethyl]-6-(2-methylpropyl)-2,5-piperazinedione, reference compound]
≤ 0.398	CCC(CC)[C@@H]1C(=O)N[C@H](C2Cc3ccccc3C2)C(=O)N1[C@@H](C(=O)NC)c1ccc2c(cnn2C)c1 [Example 6, (2R)-2-[(3R,6R)-3-(2,3-Dihydro-1H-inden-2-yl)-6-(1-ethylpropyl)-2,5-dioxo-1-piperazinyl]-N-methyl-2-(1-methyl-1H-indazol-5-yl)acetamide]
7.94 to 25.1	Cc1ccc([C@H](C(=O)N(C)C)N2C(=O)[C@@H](C3Cc4ccccc4C3)NC(=O)[C@H]2CC(C)C)cn1 [Comparator X, (2R)-2-[(3R,6R)-3-(2,3-dihydro-1H-inden-2-yl)-6-isobutyl-2,5-dioxopiperazin-1-yl]-N,N-dimethyl-2-(6-methylpyridin-3-yl)ethanamide, reference compound]
2 to 6.31	CCC(CC)[C@@H]1C(=O)N[C@H](C2Cc3ccccc3C2)C(=O)N1[C@@H](C(=O)NC)c1ccc(C)nc1 [Example 1, (2R)-2-[(3R,6R)-3-(2,3-Dihydro-1H-inden-2-yl)-6-(1-ethylpropyl)-2,5-dioxo-1-piperazinyl]-N-methyl-2-(6-methyl-3-pyridinyl)ethanamide]
